Data on 16 molecules can be found in publication PMC9386001, “Identification of naturally occurring inhibitors in Xian-Ling-Gu-Bao capsule against the glucuronidation of estrogens” (Frontiers in Pharmacology, 2022).

Like-named read-outs stand apart in the source and are kept apart here.

For orientation: IC50 means the concentration that gives 50% inhibition. By Ki is commonly meant the dissociation constant of the complex between target and ligand, obtained from inhibition or displacement. A word on the Vmax: it is the top rate of the reaction or transport when substrate is in excess.

The target of one data set is T1, UGT2B7 (Homo sapiens, UniProt P16662).
T1 sequence (P16662 24-529): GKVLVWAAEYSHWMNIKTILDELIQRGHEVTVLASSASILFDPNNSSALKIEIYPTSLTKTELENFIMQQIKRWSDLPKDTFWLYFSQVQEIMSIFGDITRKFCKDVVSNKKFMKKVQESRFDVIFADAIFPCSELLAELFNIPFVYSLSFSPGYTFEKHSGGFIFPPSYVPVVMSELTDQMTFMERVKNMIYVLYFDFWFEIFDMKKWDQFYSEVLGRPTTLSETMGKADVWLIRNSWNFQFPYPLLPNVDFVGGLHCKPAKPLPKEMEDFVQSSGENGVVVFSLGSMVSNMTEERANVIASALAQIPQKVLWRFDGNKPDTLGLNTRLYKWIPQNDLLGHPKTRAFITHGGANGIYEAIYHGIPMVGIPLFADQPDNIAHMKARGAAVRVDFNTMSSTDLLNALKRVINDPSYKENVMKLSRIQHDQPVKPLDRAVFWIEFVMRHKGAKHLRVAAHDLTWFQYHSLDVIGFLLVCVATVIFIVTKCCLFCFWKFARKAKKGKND
Put plainly: Inhibition of UGT2B7 (zidovudine-N-glucuronidation). As to conditions: for Inhibitory type: best model by smallest AIC and SC; for activity at 10 µM: human, probe zidovudine (AZT). How it is done:
(§1) The final volume of solvent in incubations was 1%. In addition, emodin, atazanavir, and diclofenac were considered as positive controls for UGT1A10, UGT1A1, and UGT2B7, respectively.
(§2) Competitive inhibition, non-competitive inhibition, and mixed-type inhibition models were used to estimate the Ki values by nonlinear regression based on Eqs 6–8, respectively.

Another data set has as its target T2, UGT1A1 (Homo sapiens, UniProt P22309).
T2 sequence (P22309 26-533): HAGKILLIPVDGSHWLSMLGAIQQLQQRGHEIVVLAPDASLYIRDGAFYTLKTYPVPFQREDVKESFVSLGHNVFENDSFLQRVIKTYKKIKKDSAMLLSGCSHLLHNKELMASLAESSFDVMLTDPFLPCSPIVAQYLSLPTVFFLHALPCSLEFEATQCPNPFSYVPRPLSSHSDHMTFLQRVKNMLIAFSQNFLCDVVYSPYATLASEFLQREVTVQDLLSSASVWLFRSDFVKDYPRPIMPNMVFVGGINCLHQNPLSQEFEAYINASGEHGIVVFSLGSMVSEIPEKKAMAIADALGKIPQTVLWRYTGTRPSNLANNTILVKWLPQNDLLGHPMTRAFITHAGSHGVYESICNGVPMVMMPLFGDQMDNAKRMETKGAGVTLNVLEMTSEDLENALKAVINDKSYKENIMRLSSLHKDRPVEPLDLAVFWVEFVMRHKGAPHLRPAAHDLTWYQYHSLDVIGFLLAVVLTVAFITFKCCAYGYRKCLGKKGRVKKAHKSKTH
Put plainly: Inhibition of UGT1A1 (β-estradiol-3-O-glucuronidation). To be noted: for Inhibitory type: best model by smallest AIC and SC; for activity at 10 µM: human. How it is done: as §1, §2

The target of another data set is T3, UGT1A10 (Homo sapiens, UniProt Q9HAW8).
T3 sequence (Q9HAW8 26-530): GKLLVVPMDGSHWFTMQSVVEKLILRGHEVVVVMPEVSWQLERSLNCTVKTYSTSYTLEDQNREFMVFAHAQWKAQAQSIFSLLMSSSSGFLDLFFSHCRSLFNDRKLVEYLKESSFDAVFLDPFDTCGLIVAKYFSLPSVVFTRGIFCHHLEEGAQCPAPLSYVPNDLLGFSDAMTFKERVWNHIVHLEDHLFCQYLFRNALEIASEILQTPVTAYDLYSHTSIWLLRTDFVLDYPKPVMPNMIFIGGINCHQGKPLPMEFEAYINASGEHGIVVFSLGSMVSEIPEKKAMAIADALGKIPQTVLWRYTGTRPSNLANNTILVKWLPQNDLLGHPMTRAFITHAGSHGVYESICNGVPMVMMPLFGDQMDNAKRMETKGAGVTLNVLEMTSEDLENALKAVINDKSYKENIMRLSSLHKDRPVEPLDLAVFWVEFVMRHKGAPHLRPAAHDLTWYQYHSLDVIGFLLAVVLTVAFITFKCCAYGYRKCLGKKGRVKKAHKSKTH
Put plainly: Inhibition of UGT1A10 (4-methylumbelliferone-O-glucuronidation). To be noted: for activity at 10 µM: human, expressed human UGT1A10 enzyme, probe 4-methylumbelliferone (4-MU); for Inhibitory type: best model by smallest AIC and SC. How it is done: as §1, §2

Substrate in data set [1]: C[C@]12CC[C@@H]3c4ccc(O)cc4CC[C@H]3[C@@H]1C[C@@H](O)[C@@H]2O
Put plainly: cells, lysate or membranes named. To be noted: other: UGT2B7; 16-O-glucuronide formation; pH 7.4; 37.0 °C.

Setting [2] is: UGT2B7 enzyme (optimized UGT2B7 incubation system).
[3] abbreviates: human UGT1A1 enzyme, probe β-estradiol (E2).

As for `C=C[C@@](C)(/C=C/c1ccc(O)cc1)CCC=C(C)C` [Bakuchiol, bakuchiol], inhibition against UGT2B7 was half-maximal at 4550 ± 430 nM (IC50). For the same molecule, the Inhibitory type result at UGT2B7 (UGT2B7) is given as “Competitive”. Also, at UGT2B7 (setting [2]), the activity at 10 µM is 35.5%.
`CC(C)=CCc1cc(C(=O)/C=C/c2ccc(O)cc2)c(O)cc1O` [Bavachalcone, bavachalcone]: the IC50 came out at 530 ± 70 nM against UGT1A1 and 4650 ± 520 nM on UGT2B7. The Ki came to 1100 ± 80 nM on UGT1A1 and 1870 ± 200 nM at UGT2B7. Further, the Inhibitory type result is reported as “Non-competitive” on UGT1A1 (UGT1A1) and “Competitive” at UGT2B7 (UGT2B7). Also, the activity at 10 µM at UGT1A1 (setting [3]) turned out to be 13%; at UGT2B7 (setting [2]) it was 27.2%.
On UGT1A10, `COc1ccc(-c2oc3c(CC=C(C)C)c(O[C@@H]4O[C@H](CO)[C@@H](O)[C@H](O)[C@H]4O)cc(O)c3c(=O)c2O[C@@H]2O[C@@H](C)[C@H](O)[C@@H](O)[C@H]2O)cc1` [Icariin, icariin] showed an IC50 of 5940 ± 1240 nM, an inhibition constant Ki of 9770 ± 820 nM and an activity at 10 µM of 37.3%.
For `COc1ccc(-c2oc3c(CC=C(C)C)c(O[C@@H]4O[C@H](CO)[C@@H](O)[C@H](O)[C@H]4O)cc(O)c3c(=O)c2O)cc1` [Icariside I, icariside I], the concentration for half-maximal inhibition (IC50) on UGT1A1 was determined as 3280 ± 1200 nM; on UGT1A10, 1390 ± 330 nM. Also, the Ki on UGT1A1 is 6010 ± 470 nM; at UGT1A10, 1920 ± 260 nM. The Inhibitory type entry is given as “Non-competitive” on UGT1A1 (UGT1A1) and “Competitive” at UGT1A10 (UGT1A10). The results for the activity at 10 µM on UGT1A1 (setting [3]) and at UGT1A10 were 35.5% and 26.5%, respectively.
With `COc1ccc(-c2oc3c(CC=C(C)C)c(O)cc(O)c3c(=O)c2O)cc1` [Icaritin, icaritin], on UGT1A1, inhibition was half-maximal at 1280 ± 260 nM (IC50) and the affinity, expressed as Ki, was 420 ± 170 nM. Further, the Inhibitory type entry on UGT1A1 (UGT1A1) is “Non-competitive”. At UGT1A1 (setting [3]), this molecule came in with an activity at 10 µM of 10.2%.
For `CC(C)=CCc1c(O)ccc(C(=O)/C=C/c2ccc(O)cc2)c1O` [Isobavachalcone, isobavachalcone], the values for the IC50 against UGT1A1, at UGT1A10 and at UGT2B7 were 1650 ± 150 nM, 2800 ± 300 nM and 1380 ± 220 nM, respectively. Besides, the inhibition constant (Ki) is 1200 ± 120 nM at UGT1A1, 1660 ± 190 nM on UGT1A10 and 300 ± 70 nM at UGT2B7. The Inhibitory type result is “Non-competitive” on UGT1A1 (UGT1A1), “Non-competitive” on UGT1A10 (UGT1A10) and “Competitive” at UGT2B7 (UGT2B7). Also, the activity at 10 µM at UGT1A1 (setting [3]) was determined as 3.97%; on UGT1A10 it was 8.61%; at UGT2B7 (setting [2]) it was 0%.
`CC(C)=CCc1c(O)ccc2c1O[C@H](c1ccc(O)cc1)CC2=O` [Isobavachin, isobavachin]: the IC50 is 1730 ± 110 nM on UGT1A1, 3620 ± 360 nM at UGT1A10 and 110 ± 10 nM against UGT2B7. Besides, the values for the Inhibitory type entry on UGT1A1 (UGT1A1), on UGT1A10 (UGT1A10) and on UGT2B7 (UGT2B7) were “Competitive”, “Non-competitive” and “Competitive”, respectively. The inhibition constant (Ki) on UGT1A1 (UGT1A1, substrate E2) turned out to be 3350 ± 530 nM; on UGT1A10, 1810 ± 280 nM; at UGT2B7 (UGT2B7, substrate AZT), 20 ± 10 nM. Further, the activity at 10 µM at UGT1A1 (setting [3]) was 4.58%; on UGT1A10 it was 20.4%; at UGT2B7 (setting [2]), 0%.
On to `CC(C)=CCc1cc(-c2coc3cc(O)ccc3c2=O)ccc1O` [Neobavaisoflavone, neobavaisoflavone], for which the values for the IC50 at UGT1A1, at UGT1A10 and on UGT2B7 were 2860 ± 140 nM, 3990 ± 670 nM and 1170 ± 100 nM, respectively. Also, the Ki on UGT1A1 was 780 ± 160 nM; on UGT1A10, 2600 ± 230 nM; at UGT2B7, 390 ± 30 nM. Besides, the values for the Inhibitory type result at UGT1A1 (UGT1A1), at UGT1A10 (UGT1A10) and on UGT2B7 (UGT2B7) were “Non-competitive”, “Competitive” and “Mixed type”, respectively. The activity at 10 µM at UGT1A1 (setting [3]) came out at 7.42%; at UGT1A10, 31.1%; on UGT2B7 (setting [2]), 10.2%. This molecule also registered a α on UGT2B7 (UGT2B7, mixed-type inhibition model, αKi) of 5.15 ± 2.08.
As for `CC(C)=CCc1cc2c(cc1O)oc(=O)c1c3ccc(O)cc3oc21` [Psoralidin, psoralidin], on UGT1A1, 1950 ± 150 nM corresponded to half-maximal inhibition (IC50) and the affinity, expressed as Ki, was 980 ± 230 nM. Moreover, the Inhibitory type entry at UGT1A1 (UGT1A1) is “Non-competitive”. On UGT1A1 (setting [3]), this molecule yielded an activity at 10 µM of 1.48%.
On UGT1A1, `O=C(C=Cc1ccc(O)c2c1C(C(=O)OC(Cc1ccc(O)c(O)c1)C(=O)O)C(c1ccc(O)c(O)c1)O2)OC(Cc1ccc(O)c(O)c1)C(=O)O` (stereo not shown) [Salvianolic acid B, salvianolic acid B] came in with an IC50 of 3780 ± 530 nM, a Ki of 2160 ± 210 nM and an activity at 10 µM of 36.2%. Moreover, at UGT1A1 (UGT1A1), the Inhibitory type entry was “Competitive”.
Consider `COC(=O)N[C@H](C(=O)N[C@@H](Cc1ccccc1)[C@@H](O)CN(Cc1ccc(-c2ccccn2)cc1)NC(=O)[C@@H](NC(=O)OC)C(C)(C)C)C(C)(C)C` [atazanavir, reference compound], for which the activity at 10 µM on UGT1A1 (expressed human UGT1A1 enzyme, probe β-estradiol (E2)) came to 4.38%.
For the molecule `O=C(O)Cc1ccccc1Nc1c(Cl)cccc1Cl` [diclofenac, reference compound], the activity at 10 µM at UGT2B7 (expressed human UGT2B7 enzyme) came to 53.9%.
On UGT1A10, `Cc1cc(O)c2c(c1)C(=O)c1cc(O)cc(O)c1C2=O` [emodin, reference compound] came in with an activity at 10 µM of 52.4%.
As to bavachinin, the “residual activity of UGT1A10” value at UGT1A10 (10 μM, % of negative control) worked out at 37.70%. Further, the Inhibitory type entry at UGT1A10 (UGT1A10) and at UGT2B7 (UGT2B7) was “Competitive” each time. The 50% inhibitory concentration (IC50) came out at 5420 ± 640 nM at UGT1A10 (UGT1A10, substrate 4-MU) and 2270 ± 260 nM at UGT2B7 (UGT2B7, substrate AZT). For the same molecule, the Ki on UGT1A10 (UGT1A10, substrate 4-MU) worked out at 3290 ± 230 nM; on UGT2B7 (UGT2B7, substrate AZT) it was 1110 ± 170 nM. For the same molecule, the “residual activity (Figures 3G–I, UGT2B7)” value at UGT2B7 (10 μM, % of negative control) is 13.23%.
icariside II: the Inhibitory type result on UGT1A1 (UGT1A1), at UGT1A10 (UGT1A10) and on UGT2B7 (UGT2B7) was “Competitive” each time.

B1: UGT2B7 (Homo sapiens) (protein)
chain: GKVLVWAAEYSHWMNIKTILDELIQRGHEVTVLASSASILFDPNNSSALKIEIYPTSLTKTELENFIMQQIKRWSDLPKDTFWLYFSQVQEIMSIFGDITRKFCKDVVSNKKFMKKVQESRFDVIFADAIFPCSELLAELFNIPFVYSLSFSPGYTFEKHSGGFIFPPSYVPVVMSELTDQMTFMERVKNMIYVLYFDFWFEIFDMKKWDQFYSEVLGRPTTLSETMGKADVWLIRNSWNFQFPYPLLPNVDFVGGLHCKPAKPLPKEMEDFVQSSGENGVVVFSLGSMVSNMTEERANVIASALAQIPQKVLWRFDGNKPDTLGLNTRLYKWIPQNDLLGHPKTRAFITHGGANGIYEAIYHGIPMVGIPLFADQPDNIAHMKARGAAVRVDFNTMSSTDLLNALKRVINDPSYKENVMKLSRIQHDQPVKPLDRAVFWIEFVMRHKGAKHLRVAAHDLTWFQYHSLDVIGFLLVCVATVIFIVTKCCLFCFWKFARKAKKGKND
For the molecule B1, in data set [1], the K0.5 was found to be 9.92 ± 0.69 µM, the Vmax came to 0.00788 µmol/min/mg and the Vmax/Km was 794 µL/min/mg.
